Measured values taken from patent publication EP3683219A1, “COMPOUND INHIBITING BUTYRYLCHOLINESTERASE” (Julius-Maximilians-Universität Würzburg, priority 2019, dated 2020).
Like-named read-outs stand apart in the source and are kept apart here.

Columns and labels:
hBChE [1] = target: T1, hBChE (Homo sapiens, UniProt P06276); experiment: biochemical; type: biochemical; conditions: for Selectivity index (IC50 hAChE/IC50 hBChE): hAChE over hBChE; for IC50 values (hBChE), in words: linker of 4 methylene groups; for fold lower activity than heptyl carbamate 7 (IC50 hBChE): compared with compound 7
Experimental: (§1) For evaluation of enzyme inhibition, Ellman's colorimetric assay was conducted as described in Ellman, G. L., Arch. Biochem. Biophys 1958, 74, 443-450 and Ellman, G. L. et al., Biochem. Pharmacol. 1961, 7, 88-95. Therefor, 5,5'-dithiobis-(2-nitrobenzoic acid) (DTNB) solution, respective Cholinesterase (ChE) and inhibitor were incubated together and enzyme activity was measured after 20 min. The long incubation time was needed to allow the carbamate transfer between ChE and inhibitor.
(§2) The carbamate residue was altered systematically by changing residues in the terminal position of carbamate moiety and different flexible alkylene linkers were introduced. […] Nevertheless, it must be noted that IC50 values only serve as a first indicator of inhibitor affinity and selectivity. Due to the chemical reaction of carbamate transfer the enzyme inhibition is strongly time dependent. […]

[2] = tested on: Aβ25-35-induced spontaneous alternation deficits; experiment: Spontaneous alternation test in the Y-maze, Aβ25-35-injected mice; type: in vivo, male Swiss mice; conditions: 0.3-3 mg/kg ip o.d. day 1 to 7; Y-maze day 8
Experimental: 2013, 38, pages 1706-1723.
AD-like cognitive dysfunctions were induced in male Swiss mice, 6 weeks old, weighing 31-36 g by intracerebroventricular (icv) injection of the oligomerized Aβ25-35 peptide into the mouse brain on day 1.
Compounds were weighed, dissolved in pure DMSO at a concentration of 1 mg/ml and diluted into final test concentrations with saline. The final percentage of DMSO in saline was 60% for all compounds. Vehicle solution used for control groups was 60% DMSO in saline. Compounds were injected intraperitoneally (ip) from day 1 to 7 and behavioral studies were conducted between day 8 and 10. Spatial working memory was evaluated using a spontaneous alternation test in a Y-maze on day 8. The Y-maze is made of grey polyvinylchloride. Each arm is 40 cm long, 13 cm high, 3 cm wide at the bottom, 10 cm wide at the top, and converging at an equal angle. Each mouse is placed at the end of one arm and allowed to explore the maze freely for 8 min. The sequence of arm entries (including possible returns into the same arm) was checked visually and noted down. If the mouse enters all three arms on consecutive occasion, this is defined as an alternation. Therefore, the total number of arm entries minus two is also the maximum number of alternations. The percentage of alternation was calculated as (actual alternations / maximum alternations) x 100. Parameters for the evaluation of behavior are given as the percentage of alternation (memory index) and a total number of arm entries (exploration index).
Figs. 7a-h show the effect of the compounds on Aβ25-35-induced spontaneous alternation deficits in mice. […] Figs. 7a, c, e, g: spontaneous alternation performance; Figs. 7b, d, f, h: number of arm entries in the Y-maze test performed at day 8.

[3] = tested on: Aβ25-35-induced passive avoidance impairments; experiment: Step-through passive avoidance test, Aβ25-35-injected mice; type: in vivo, male Swiss mice; conditions: 0.3-3 mg/kg ip o.d. day 1 to 7; retention day 10
hAChE = hAChE (Homo sapiens, UniProt P22303); experiment: Ellman's colorimetric assay, inhibition of hAChE; type: biochemical; conditions: for inhibition at 100 µM / inhibition at 25 µM: read-out: inhibition of hAChE; for IC50 / plC50 ± SEM (hAChE): enzyme activity measured after 20 min incubation
Experimental: as §1, §2

hBChE [4] = target: T1, hBChE; experiment: Decarbamoylation from hBChE, dilution experiments (recovery of enzyme activity, k4); type: biochemical; conditions: decarbamoylation rate, after 1 h incubation and 1:1000 dilution
Experimental: To further investigate the presence and nature of a peripheral binding site, also the hydrolysis of carbamate and the resulting release of the inhibitor from the enzyme was investigated by measuring the time dependent recovery of enzyme activity. To measure the decarbamoylation rate k4, dilution experiments were performed with hBChE following the procedure described in Sawatzky, E. et al., ChemMedChem 2016, 11, 1540-1550 and in Bartolucci, C. et al., Biochem. J. 2012, 444, 269-277. A high concentration of enzyme and inhibitor where incubated for 1 h. The concentration of inhibitor was chosen, such that > 85% of hBChE was inhibited through carbamate transfer. Then the mixture was diluted with buffer 1:1000 to a concentration at which the enzyme is not further carbamoylated. Due to the hydrolysis and release of the carbamate from the catalytic active serine enzyme activity was recovered slowly. This regeneration of the enzyme was monitored at different time points after the dilution. […] A = (1−e^(k4 ⋅t))⋅(1−A0) + A0 [formula] Table 4. Kinetic values for decarbamoylation from hBChE of selected compounds

hBChE [5] = target: T1, hBChE; experiment: Carbamoylation kinetics on hBChE (time-dependent inhibition, Kc and k3); type: biochemical; conditions: for k3 [min^-1] hBChE: carbamoylation rate constant; for Kd: carbamoylation, pre-equilibrium constant
Text: As carbamate based inhibitors (C-X) show a pseudo irreversible manner of binding, the IC50 values must be seen critically because two chemical reactions determine them: Carbamate (C) transfer onto the enzyme (E) and carbamate hydrolysis. So, the Kc values, k3 and k4 rate constants according to below formula were investigated for some representative compounds (c.f. Fig. 3 and Fig. 4). [formula]
The mechanism of enzyme inhibition can be divided into three steps: In a pre-equilibrium, the carbamate based inhibitor C-X is bound to the enzyme E and a complex (EC-X) is formed reversible and can be characterized with Kc. Then the carbamate C is transferred onto the enzyme E and binds covalently to form E-C with the rate constant k3 while carrier scaffold X is released. Then E-C is hydrolyzed and enzyme activity is recovered and the amine C' is released with the rate constant k4, also called decarbamoylation rate.
For the determination of Kc and k3 a similar experimental setup was used compared to the evaluation of IC50 values, whereas enzyme activity was measured at various time points after addition of inhibitor.
A = A0 ⋅e^(−kobs ⋅t) + A∞ [formula]
Plotting the enzyme activity (in %) against the incubation times, lead to nonlinear time-dependent inhibition curves for the respective inhibitor concentrations whereby kobs can be determined with an exponential fit correspondent to equation (I).
Furthermore, a hyperbolic curve is obtained, plotting the rate constant kobs against the inhibitor concentration [I], which is described by equation (II), with the substrate concentration [S] and the Michaelis-Menten constant KM. kobs = (k3 ⋅[I])/(KC ⋅(1+([S])/(KM)) + [I]) [formula]
This equation (II) can be rearranged to the reciprocal of kobs, to get a linear plot: (1)/(kobs) = (KC ⋅(1+([S])/(KM)))/(k3)⋅(1)/([I]) + (1)/(k3) [formula]
Since the substrate butyrylthiocholine iodide is not added directly to the enzyme and the inhibitor, but after the incubation of enzyme with inhibitor, [S] can be set to zero, leading to Michaelis-Menten like equation IV. (1)/(kobs) = (KC)/(k3)⋅(1)/([I]) + (1)/(k3) [formula]
Relating to the linear equation (IV), KC can be established from the slope and carbamoylation rate constant k3 from the y-intercept.
As a chemical reaction is taking place, Kc must be seen as a 'real' measure for quantification of enzyme inhibitor interactions. Due to the high costs in measurements on hBChE only some representative compounds were chosen to evaluate also in kinetic studies based on the results from IC50 measurements (table 3). Table 3. Kinetic values for carbamoylation on hBChE for selected representative compounds

[6] = enzyme activity measured after 20 min incubation
[7] = enzyme activity measured after 20 min incubation, read-out: IC50 hBChE

Chain of hAChE (P22303 32-614): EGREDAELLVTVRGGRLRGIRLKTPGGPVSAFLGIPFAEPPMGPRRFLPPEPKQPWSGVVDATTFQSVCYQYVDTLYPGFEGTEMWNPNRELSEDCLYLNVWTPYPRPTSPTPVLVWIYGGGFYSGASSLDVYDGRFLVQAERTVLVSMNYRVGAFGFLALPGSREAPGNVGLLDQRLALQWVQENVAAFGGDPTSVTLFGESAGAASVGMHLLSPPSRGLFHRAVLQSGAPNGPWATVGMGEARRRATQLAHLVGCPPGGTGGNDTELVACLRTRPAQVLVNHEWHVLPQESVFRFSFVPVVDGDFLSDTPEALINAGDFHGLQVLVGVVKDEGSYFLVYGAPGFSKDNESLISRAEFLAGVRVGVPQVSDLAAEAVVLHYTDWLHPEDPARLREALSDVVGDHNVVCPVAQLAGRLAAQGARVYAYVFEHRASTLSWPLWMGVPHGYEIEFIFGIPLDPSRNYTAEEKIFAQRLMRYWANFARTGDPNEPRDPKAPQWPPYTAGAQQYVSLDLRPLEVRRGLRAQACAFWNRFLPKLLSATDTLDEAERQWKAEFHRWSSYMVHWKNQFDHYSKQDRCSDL
T1 sequence (P06276 29-602): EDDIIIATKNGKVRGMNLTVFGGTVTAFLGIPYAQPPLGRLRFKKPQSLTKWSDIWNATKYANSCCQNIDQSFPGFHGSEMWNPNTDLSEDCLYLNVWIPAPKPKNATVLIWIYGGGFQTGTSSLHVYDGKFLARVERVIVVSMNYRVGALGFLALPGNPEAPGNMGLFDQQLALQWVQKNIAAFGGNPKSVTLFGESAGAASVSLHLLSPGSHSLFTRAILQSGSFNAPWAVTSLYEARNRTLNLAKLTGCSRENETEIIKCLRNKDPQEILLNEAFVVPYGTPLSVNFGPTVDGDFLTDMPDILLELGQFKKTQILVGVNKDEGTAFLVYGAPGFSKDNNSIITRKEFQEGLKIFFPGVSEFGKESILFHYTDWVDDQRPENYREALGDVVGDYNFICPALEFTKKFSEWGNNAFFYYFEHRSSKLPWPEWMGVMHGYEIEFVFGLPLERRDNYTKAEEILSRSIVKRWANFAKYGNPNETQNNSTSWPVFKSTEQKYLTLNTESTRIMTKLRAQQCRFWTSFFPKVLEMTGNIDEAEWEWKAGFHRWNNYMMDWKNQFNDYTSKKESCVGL

| SMILES | plC50 ± SEM (hBChE) (hBChE [1]; [6]) | IC50 (hBChE [1]; [7]) [nM] | Selectivity index (IC50 hAChE/IC50 hBChE) (hBChE [1]) | k4 (hBChE [4]) [h⁻¹] | k3 [min^-1] hBChE (hBChE [5]) [min⁻¹] | Kd (hBChE [5]) [nM] | also measured |
| --- | --- | --- | --- | --- | --- | --- | --- |
| CN1c2ccc(O)cc2CN2CCc3ccccc3C21 (stereo not shown) [Compound 13, reference compound] | – | – | – | – | – | – | BChE inhibition, in words (hBChE [1]): lacking BChE inhibition; effect on Aβ25-35-induced spontaneous alternation deficits [2]: not active; effect on Aβ25-35-induced passive avoidance deficits (step-through latency, retention) [3]: not active |
| CN1c2ccc(OC(=O)NCCN3CCOCC3)cc2CN2CCc3ccccc3C21 (stereo not shown) [Compound 19a] | 5.11 ± 0.04 | 7770 | >10 | – | – | – | inhibition at 100 µM (hAChE; 100 µM): 17% |
| CN1c2ccc(OC(=O)NCCCN3CCOCC3)cc2CN2CCc3ccccc3C21 (stereo not shown) [Compound 19b] | 6.03 ± 0.02 | 938 | >100 | – | – | – | inhibition at 100 µM (hAChE; 100 µM): 13% |
| CN1c2ccc(OC(=O)NCCCCN3CCOCC3)cc2CN2CCc3ccccc3C21 (stereo not shown) [Compound 19c] | 7.30 ± 0.02 | 50.6 | >1000 | 0.48 ± 0.06 | – | – | IC50 values (hBChE), in words (hBChE [1]): two-digit nanomolar; inhibition at 100 µM (hAChE; 100 µM): 13% |
| CN1c2ccc(OC(=O)NCCCCCCCCN3CCOCC3)cc2CN2CCc3ccccc3C21 (stereo not shown) [Compound 19e] | – | 19.8 | >1000 | 1.58 ± 0.15 | – | – | IC50 (hBChE [1]): 85.1 nM; inhibition at 100 µM (hAChE): 22% |
| CN1c2ccc(OC(=O)NCCCCCCCCCCN3CCOCC3)cc2CN2CCc3ccccc3C21 (stereo not shown) [Compound 19f] | 7.94 ± 0.07 | 11.5 | >1000 | – | – | – | inhibition at 100 µM (hAChE; 100 µM): 25% |
| CN1c2ccc(OC(=O)NCCN3CCc4ccccc4C3)cc2CN2CCc3ccccc3C21 (stereo not shown) [Compound 19g] | 5.76 ± 0.05 | 1720 | >10 | – | >20 | > 200000 | inhibition at 10 µM (hAChE): 10% |
| CN1c2ccc(OC(=O)NCCCN3CCc4ccccc4C3)cc2CN2CCc3ccccc3C21 (stereo not shown) [Compound 19h] | 5.94 ± 0.05 | 1160 | >10 | – | – | – | inhibition at 10 µM (hAChE): 12% |
| CN1c2ccc(OC(=O)NCCCCN3CCc4ccccc4C3)cc2CN2CCc3ccccc3C21 (stereo not shown) [Compound 19i] | 6.72 ± 0.06 | 192 | >100 | 0.028 ± 0.001 | – | – | IC50 values (hBChE), in words (hBChE [1]): two-digit nanomolar; inhibition at 10 µM (hAChE): 16% |
| CN1c2ccc(OC(=O)NCCCCCCCCN3CCc4ccccc4C3)cc2CN2CCc3ccccc3C21 (stereo not shown) [Compound 19k] | 7.49 ± 0.03 | 32.6 | >1000 | 0.83 ± 0.06 | – | – | inhibition at 10 µM (hAChE): 11% |
| CN1c2ccc(OC(=O)NCCCCCCCCCCN3CCc4ccccc4C3)cc2CN2CCc3ccccc3C21 (stereo not shown) [Compound 19l] | 7.38 ±0.04 | 41.8 | >1000 | – | 0.25 ± 0.04 | 5.68 ± 2.19 | inhibition at 10 µM (hAChE): 15%; Kc values (hBChE), in words (hBChE [5]): one-digit nanomolar range |
| CN1c2ccc(OC(=O)NCCCCCCn3cnc4ccccc43)cc2CN2CCc3ccccc3C21 (stereo not shown) [Compound 19m] | 8.13 ± 0.04 | 7.4 | >1000 | 0.45 ± 0.04 | 0.26 ± 0.09 | 7.7 ± 4.6 | inhibition at 25 µM (hAChE; 25 µM): 44%; Kc values (hBChE), in words (hBChE [5]): one-digit nanomolar range |
| CN1c2ccc(OC(=O)NCCCCCCn3ccnc3)cc2CN2CCc3ccccc3C21 (stereo not shown) [Compound 19n] | 7.88 ± 0.06 | 13.3 | >1000 | 0.82 ± 0.03 | 0.31 ± 0.15 | 13.1 ± 14.4 | inhibition at 25 µM (hAChE; 25 µM): 18%; Kc values (hBChE), in words (hBChE [5]): one-digit nanomolar range |
| CN1c2ccc(OC(=O)NCCCCCCN3CCCC3)cc2CN2CCc3ccccc3C21 (stereo not shown) [Compound 19o] | – | 34.3 | 26 | 0.98 ± 0.04 | – | – | IC50 (hBChE [1]): 339 nM; fold lower activity than heptyl carbamate 7 (IC50 hBChE) (hBChE [1]): approximately 10 fold; IC50 (hAChE): 880 nM; plC50 ± SEM (hAChE) (hAChE): 6.06 ± 0.03 |
| CN1c2ccc(OC(=O)NCCCCCCN3CCCCC3)cc2CN2CCc3ccccc3C21 (stereo not shown) [Compound 19p] | 7.08 ± 0.04 | 83.7 | 14 | 0.129 ± 0.006 | – | – | fold lower activity than heptyl carbamate 7 (IC50 hBChE) (hBChE [1]): approximately 10 fold; IC50 (hAChE): 1200 nM; plC50 ± SEM (hAChE) (hAChE): 5.91 ± 0.03 |
| CN1c2ccc(OC(=O)NCCCCCCN3CCN(C(=O)OC(C)(C)C)CC3)cc2CN2CCc3ccccc3C21 (stereo not shown) [Compound 19q] | – | 123 | >100 | – | 0.70 ± 0.31 | 1550 ± 827 | IC50 (hBChE [1]): 794 nM; inhibition at 25 µM (hAChE): 15% |
| CN1c2ccc(OC(=O)NCCCCCCN3CCNCC3)cc2CN2CCc3ccccc3C21 (stereo not shown) [Compound 19r] | 7.09 ± 0.03 | 80.6 | >100 | 1.44 ± 0.07 | 0.32 ± 0.13 | 121 ± 116 | inhibition at 25 µM (hAChE; 25 µM): 16% |
